Data on 1 compound can be found in US20260124188A1, “mGluR receptor antagonists for use in prevention andor treatment of bone marrow lesions (BML) andor osteoporosis, cartilage loss, osteosclerosis and osteitis in a mammal” (Orphelion AB, priority 2022, published 2026).

The data set in a line: Dissolution of TT001 in I.V. formulation vehicle. The data set is classed as physicochemical. As to conditions: 0.1 to 10 mg/ml in 40% w/v HPβCD solution in water for injection; a couple of hours for complete dissolution. On the procedure:
FORMULATION METHOD FOR THE PREPARATION OF TT001 FOR I.V. DOSING, 0.1 to 10 mg/ml The formulation method is applicable at concentrations in formulation between 0.1 and 10 mg/mL corresponding to 0.262 and 26.2 μmol/mL • TT001 M.W.: 381.8 g/mol • 10 The dissolution of TT001 is moderate, allow a couple of hours for complete dissolution.
• Preparation of 40% w/v HPβCD solution in water for injection • Excipients Hydroxypropyl-β-cyclodextrin, Kleptose, Roquette (HPβCD) 400 mg (40% w/v) • Water for injection to 1 ml (1.13 g) • is Appearance Clear • Density 1.13 g/cm^3
• Preparation of TT001 I.V. formulations between 0.1 and 10 mg/ml • TT001 parent form 0.1-10 mg • Vehicle (40% w/v HPβCD solution in water for injection) to 1 ml (1.13 g) • Appearance Clear • Density 1.13 g/cm^3 • Comments

For `C[C@@H](Oc1nnc(-c2ccncc2)n1C)c1cc(-c2cccc(Cl)c2)on1` [TT001, 4-[5-[(1R)-1-[5-(3-Chlorophenyl)-3-isoxazolyl]ethoxy]-4-methyl-4H-1,2,4-triazol-3-yl]pyridine], the dissolution entry is given as “moderate”.
